Reference: US12606635B2, “Glypican-2-binding moieties, chimeric antigen receptors and uses thereof” (Nanjing Legend Biotech Co., Ltd., priority 2020, dated 2026)

Columns and labels:
[1] = test system: SH-SY5Y cells; assay: Cytotoxicity of CAR T cells in presence of Compound A gradient; type: cell-based, human; conditions: 0.04-30 μM Compound A, E:T 0.2:1, 20 hours, FIG. 10
Experimental: To evaluate if Compound A influence to the cytotoxicity of CAR T against tumor cell, Compound A (CAS Number:191732-72-6, Sigma-Aldrich, St. Louis) stock was serially diluted to final concentration of 30, 10, 3.33, 1.11, 0.37, 0.12 and 0.04 μM using complete growth medium. In the presence of Compound A gradient, CAR T cells were co-incubated with tumor cells at an effector (CAR T) to target cell ratio of 0.2:1 for 20 hours. CAR T cells and tumor cells co-cultured without addition of Compound A served as a control. Cytotoxicity of CAR T cells on tumor cells was estimated using the Cytotoxicity Detection Kit (LDH) (Roche, #11644793001) as described in Example 6.

[2] = test system: neuroblastoma SH-SY5Y xenograft; conditions: mouse, in vivo
[3] = test system: neuroblastoma SH-SY5Y xenograft; assay: In vivo combination of Compound A and CAR T cells in SH-SY5Y xenograft; conditions: FIG. 12A
[4] = test system: SH-SY5Y tumor cells; assay: In vitro repetitive challenge assay with Compound A; type: cell-based, human
Experimental: To evaluate the effect of 3-(4-amino-1-oxo-1,3 dihydro-2H-isoindol-2-yl)piperidine-2,6-dione (Compound A) on CAR T cell recursive killing potential, T cell expansion and survival, an in vitro repetitive challenge assay was employed. Exemplary CAS70950VH6-BBz CAR T cells on day 11 post-transduction were co-cultured with SH-SY5Y tumor cells at an effector (CAR T) to target cell ratio of 1:2. The co-culture media was supplemented with 10 μM Compound A throughout this study. CAR T cells were re-challenged with tumor cells every 3 days (round 1, round 2, round 3 and round 4). CAR T cells and tumor cells co-cultured without addition of Compound A was used as a control. The percentages of CD3^+ T cells, percentages of CD3^+CAR^+ T cells were analyzed by flow cytometer. The amount of IFNγ in the co-culture supernatant was quantified using HTRF human IFNγ AlphaLISA kit (Perkin Elmer, #62HIFNGPEH) as described in Example 6.

## Nc1cccc2c1CN(C1CCC(=O)NC1=O)C2=O (stereo not shown) [Compound A, 3-(4-amino-1-oxo-1,3 dihydro-2H-isoindol-2-yl)piperidine-2,6-dione]
[1]
  effect of Compound A on cytotoxicity of CAS70950VH6-BBz CAR T cells against SH-SY5Y: not impaired
[2]
  promotion of CAR+ T cells expansion by Compound A co-administration: about 6 fold
[3]; Compound A 7.5 mg/kg i.p. 21 days plus 1.5×10^6 CAR+ T cells
  tumor regression, Compound A in combination with CAS70950VH6-BBz CAR-T cells: more pronounced tumor regression
[3]; twelve days after treatment, CAR T 1.5×10^6 i.v. or Compound A 7.5 mg/kg i.p. for 21 days
  tumor growth, single treatment: did not achieve any tumor suppression
[4]; 10 μM Compound A
  IFNγ released from CAS70950VH6-BBz CAR T cells compared to non-treated CAR T cells: higher amount of IFNγ
[4]; CAS70950VH6-BBz CAR T cells with 10 μM Compound A, FIG. 11A-11B
  CD3+CAR+ T cells survival and expansion after repetitive tumor challenges: promoted CD3^+CAR^+ T cells survival and expansion
[4]; supplemented with 10 μM Compound A, FIG. 11A-11B
  effector activity of CAS70950VH6-BBz CAR T cells after repetitive tumor challenges: maintained their effector activity
